Like-named read-outs stand apart in the source and are kept apart here.
Experiments:
DDR2 = DDR2 (Homo sapiens, UniProt Q16832); assay: ICKP radiometric kinase assay; format: biochemical; conditions: read-out: % AR (% kinase activity remaining)
CK2 = CK2 (Homo sapiens, UniProt P68400); assay: ICKP radiometric kinase assay; format: biochemical; conditions: read-out: % AR (% kinase activity remaining)
TGFBR1 = TGFBR1 (Homo sapiens, UniProt P36897); assay: ICKP radiometric kinase assay; format: biochemical; conditions: read-out: % AR (% kinase activity remaining)
TIE2 = TIE2 (Homo sapiens, UniProt Q02763); assay: ICKP radiometric kinase assay; format: biochemical; conditions: read-out: % AR (% kinase activity remaining)
[1] = system: MDA-MB-468 (second source); assay: Cell proliferation assay (CellTiter-Glo); conditions: Homo sapiens, MDA-MB-468, 168 h, read-out: 7-day antiproliferative IC50
ULK1 = ULK1 (Homo sapiens, UniProt O75385); assay: ICKP radiometric kinase assay; format: biochemical; conditions: read-out: % AR (% kinase activity remaining)
Sequence of ULK1 (O75385 whole entry): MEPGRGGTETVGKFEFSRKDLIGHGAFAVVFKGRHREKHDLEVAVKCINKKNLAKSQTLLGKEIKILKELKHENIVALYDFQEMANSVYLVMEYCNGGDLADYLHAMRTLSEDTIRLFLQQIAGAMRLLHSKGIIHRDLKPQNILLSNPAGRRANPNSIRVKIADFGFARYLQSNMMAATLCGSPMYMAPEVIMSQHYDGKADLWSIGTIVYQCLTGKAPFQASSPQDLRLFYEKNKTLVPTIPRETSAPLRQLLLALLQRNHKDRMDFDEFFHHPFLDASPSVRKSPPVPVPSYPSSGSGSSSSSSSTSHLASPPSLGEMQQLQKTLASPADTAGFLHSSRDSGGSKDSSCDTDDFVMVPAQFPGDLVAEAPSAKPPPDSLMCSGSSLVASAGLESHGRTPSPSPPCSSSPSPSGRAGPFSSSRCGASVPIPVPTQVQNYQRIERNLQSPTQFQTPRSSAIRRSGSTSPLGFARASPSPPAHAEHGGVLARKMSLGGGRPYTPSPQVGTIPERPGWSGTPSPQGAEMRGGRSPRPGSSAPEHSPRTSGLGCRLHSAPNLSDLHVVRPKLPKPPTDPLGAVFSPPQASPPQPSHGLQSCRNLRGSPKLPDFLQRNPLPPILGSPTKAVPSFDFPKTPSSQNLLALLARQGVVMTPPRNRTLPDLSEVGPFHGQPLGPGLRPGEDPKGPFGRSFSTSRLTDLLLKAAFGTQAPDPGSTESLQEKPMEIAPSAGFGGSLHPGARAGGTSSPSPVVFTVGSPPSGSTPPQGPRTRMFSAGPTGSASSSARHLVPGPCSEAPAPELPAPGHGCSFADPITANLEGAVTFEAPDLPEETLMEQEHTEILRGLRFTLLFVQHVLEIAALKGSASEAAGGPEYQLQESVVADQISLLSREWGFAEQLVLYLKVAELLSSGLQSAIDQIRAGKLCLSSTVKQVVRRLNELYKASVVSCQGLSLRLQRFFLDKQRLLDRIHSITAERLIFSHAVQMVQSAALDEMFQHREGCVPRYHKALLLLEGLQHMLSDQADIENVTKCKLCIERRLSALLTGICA

PKA = PKA (Homo sapiens, UniProt P17612); assay: ICKP radiometric kinase assay; format: biochemical; conditions: read-out: % AR (% kinase activity remaining)
IGF-1R = IGF-1R (Homo sapiens, UniProt P08069); assay: ICKP radiometric kinase assay; format: biochemical; conditions: read-out: % AR (% kinase activity remaining)
MAP4K5 = MAP4K5 (Homo sapiens, UniProt Q9Y4K4); assay: ICKP radiometric kinase assay; format: biochemical; conditions: read-out: % AR (% kinase activity remaining)
PKC zeta = PKC zeta (Homo sapiens, UniProt Q05513); assay: ICKP radiometric kinase assay; format: biochemical; conditions: read-out: % AR (% kinase activity remaining)
EF2K = EF2K (Homo sapiens, UniProt O00418); assay: ICKP radiometric kinase assay; format: biochemical; conditions: read-out: % AR (% kinase activity remaining)
ULK2 = ULK2 (Homo sapiens, UniProt Q8IYT8); assay: ICKP radiometric kinase assay; format: biochemical; conditions: read-out: % AR (% kinase activity remaining)
Sequence of ULK2 (Q8IYT8 whole entry): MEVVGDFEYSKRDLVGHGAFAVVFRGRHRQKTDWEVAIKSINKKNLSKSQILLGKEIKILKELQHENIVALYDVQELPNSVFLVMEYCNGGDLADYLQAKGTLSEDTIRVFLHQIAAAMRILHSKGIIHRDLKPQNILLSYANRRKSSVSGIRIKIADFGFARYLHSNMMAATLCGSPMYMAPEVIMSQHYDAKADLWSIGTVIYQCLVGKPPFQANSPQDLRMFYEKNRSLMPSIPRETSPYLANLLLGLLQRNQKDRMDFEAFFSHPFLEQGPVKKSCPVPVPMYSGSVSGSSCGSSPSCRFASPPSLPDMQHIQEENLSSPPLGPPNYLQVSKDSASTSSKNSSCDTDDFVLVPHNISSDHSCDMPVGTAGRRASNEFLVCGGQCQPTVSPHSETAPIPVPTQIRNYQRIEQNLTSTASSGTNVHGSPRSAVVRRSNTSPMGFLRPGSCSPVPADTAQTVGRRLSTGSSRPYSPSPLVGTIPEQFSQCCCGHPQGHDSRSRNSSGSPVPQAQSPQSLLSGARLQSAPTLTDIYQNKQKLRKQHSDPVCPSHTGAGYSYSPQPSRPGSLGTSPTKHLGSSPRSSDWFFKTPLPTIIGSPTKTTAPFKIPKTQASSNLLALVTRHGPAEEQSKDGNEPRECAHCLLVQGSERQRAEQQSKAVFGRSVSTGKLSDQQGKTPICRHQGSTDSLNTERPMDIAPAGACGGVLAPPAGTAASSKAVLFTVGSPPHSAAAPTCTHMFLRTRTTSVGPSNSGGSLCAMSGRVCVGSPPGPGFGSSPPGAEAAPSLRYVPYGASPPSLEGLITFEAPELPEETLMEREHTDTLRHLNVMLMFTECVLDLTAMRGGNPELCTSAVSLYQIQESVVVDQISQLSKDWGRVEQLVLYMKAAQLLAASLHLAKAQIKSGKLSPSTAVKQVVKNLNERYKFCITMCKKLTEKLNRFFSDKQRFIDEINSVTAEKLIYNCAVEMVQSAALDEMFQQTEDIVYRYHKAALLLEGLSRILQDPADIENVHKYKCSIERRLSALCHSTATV

MARK2 = MARK2 (Homo sapiens, UniProt Q7KZI7); assay: ICKP radiometric kinase assay; format: biochemical; conditions: read-out: % AR (% kinase activity remaining)
IKK beta = IKK beta (Homo sapiens, UniProt O14920); assay: ICKP radiometric kinase assay; format: biochemical; conditions: read-out: % AR (% kinase activity remaining)
PLK1 = PLK1 (Homo sapiens, UniProt P53350); assay: ICKP radiometric kinase assay; format: biochemical; conditions: read-out: % AR (% kinase activity remaining)
TSSK1 = TSSK1 (Homo sapiens, UniProt Q9BXA7); assay: ICKP radiometric kinase assay; format: biochemical; conditions: read-out: % AR (% kinase activity remaining)
MARK4 = MARK4 (Homo sapiens, UniProt Q96L34); assay: ICKP radiometric kinase assay; format: biochemical; conditions: read-out: % AR (% kinase activity remaining)
JNK1 = JNK1 (Homo sapiens, UniProt P45983); assay: ICKP radiometric kinase assay; format: biochemical; conditions: read-out: % AR (% kinase activity remaining)
Sequence of JNK1 (P45983 whole entry): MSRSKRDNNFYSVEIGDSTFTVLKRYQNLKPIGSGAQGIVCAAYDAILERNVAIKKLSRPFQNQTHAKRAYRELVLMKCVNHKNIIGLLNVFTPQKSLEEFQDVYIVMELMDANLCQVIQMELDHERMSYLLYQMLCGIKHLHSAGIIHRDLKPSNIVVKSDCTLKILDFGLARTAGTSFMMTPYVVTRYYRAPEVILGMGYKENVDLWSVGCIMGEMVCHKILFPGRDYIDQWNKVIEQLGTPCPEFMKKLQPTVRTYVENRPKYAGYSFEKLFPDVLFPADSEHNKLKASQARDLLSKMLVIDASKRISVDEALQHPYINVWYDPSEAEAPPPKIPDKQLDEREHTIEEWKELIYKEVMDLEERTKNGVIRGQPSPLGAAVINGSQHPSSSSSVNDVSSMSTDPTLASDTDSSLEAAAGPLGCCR

CDK9-Cyclin T1 = CDK9-Cyclin T1 (Homo sapiens, UniProt P50750); assay: ICKP radiometric kinase assay; format: biochemical; conditions: read-out: % AR (% kinase activity remaining)
SIK2 = SIK2 (Homo sapiens, UniProt Q9H0K1); assay: ICKP radiometric kinase assay; format: biochemical; conditions: read-out: % AR (% kinase activity remaining)
p38 alpha = p38 alpha (Homo sapiens, UniProt Q16539); assay: ICKP radiometric kinase assay; format: biochemical; conditions: read-out: % AR (% kinase activity remaining)
Sequence of p38 alpha (Q16539 whole entry): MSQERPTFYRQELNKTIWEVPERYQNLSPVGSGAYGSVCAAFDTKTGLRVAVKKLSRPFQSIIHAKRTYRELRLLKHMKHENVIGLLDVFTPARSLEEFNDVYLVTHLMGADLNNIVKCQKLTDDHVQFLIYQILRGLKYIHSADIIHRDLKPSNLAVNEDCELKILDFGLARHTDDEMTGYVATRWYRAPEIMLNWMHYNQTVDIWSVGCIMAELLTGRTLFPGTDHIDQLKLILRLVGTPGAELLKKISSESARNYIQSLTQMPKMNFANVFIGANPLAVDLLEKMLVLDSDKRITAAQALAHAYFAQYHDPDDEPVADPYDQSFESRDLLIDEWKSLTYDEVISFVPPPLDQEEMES

MCF7 = assay: Cell proliferation assay (CellTiter-Glo); conditions: Homo sapiens
TESK1 = TESK1 (Homo sapiens, UniProt Q15569); assay: ICKP radiometric kinase assay; format: biochemical; conditions: read-out: % AR (% kinase activity remaining)
Sequence of TESK1 (Q15569 whole entry): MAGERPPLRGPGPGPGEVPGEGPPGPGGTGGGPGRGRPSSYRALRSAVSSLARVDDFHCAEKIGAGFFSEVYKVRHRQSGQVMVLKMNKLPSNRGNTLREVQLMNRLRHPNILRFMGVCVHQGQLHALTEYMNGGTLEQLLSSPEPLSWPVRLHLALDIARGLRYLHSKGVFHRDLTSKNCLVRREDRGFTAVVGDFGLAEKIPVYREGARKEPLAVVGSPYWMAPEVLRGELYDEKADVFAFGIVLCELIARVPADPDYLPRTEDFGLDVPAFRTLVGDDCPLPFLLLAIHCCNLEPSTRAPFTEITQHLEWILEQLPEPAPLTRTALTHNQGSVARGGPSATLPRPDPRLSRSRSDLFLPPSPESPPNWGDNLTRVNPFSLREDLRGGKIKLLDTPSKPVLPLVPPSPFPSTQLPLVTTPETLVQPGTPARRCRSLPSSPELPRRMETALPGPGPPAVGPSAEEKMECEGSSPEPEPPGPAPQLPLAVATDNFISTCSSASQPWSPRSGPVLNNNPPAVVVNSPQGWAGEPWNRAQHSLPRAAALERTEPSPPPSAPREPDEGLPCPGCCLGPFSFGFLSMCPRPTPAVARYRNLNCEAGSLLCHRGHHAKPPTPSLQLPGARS

RSK2 = RSK2 (Homo sapiens, UniProt P51812); assay: ICKP radiometric kinase assay; format: biochemical; conditions: read-out: % AR (% kinase activity remaining)
S6K1 = S6K1 (Homo sapiens, UniProt P23443); assay: ICKP radiometric kinase assay; format: biochemical; conditions: read-out: % AR (% kinase activity remaining)
PHK = assay: ICKP radiometric kinase assay; format: biochemical; conditions: 1 μM
TTK = TTK (Homo sapiens, UniProt P33981); assay: ICKP radiometric kinase assay; format: biochemical; conditions: read-out: % AR (% kinase activity remaining)
ROCK 2 = ROCK 2 (Homo sapiens, UniProt O75116); assay: ICKP radiometric kinase assay; format: biochemical; conditions: read-out: % AR (% kinase activity remaining)
TrkA = TrkA (Homo sapiens, UniProt P04629); assay: ICKP radiometric kinase assay; format: biochemical; conditions: read-out: % AR (% kinase activity remaining)
SRPK1 = SRPK1 (Homo sapiens, UniProt Q96SB4); assay: ICKP radiometric kinase assay; format: biochemical; conditions: read-out: % AR (% kinase activity remaining)
EPH-A4 = EPH-A4 (Homo sapiens, UniProt P54764); assay: ICKP radiometric kinase assay; format: biochemical; conditions: read-out: % AR (% kinase activity remaining)
IRR = IRR (Homo sapiens, UniProt P14616); assay: ICKP radiometric kinase assay; format: biochemical; conditions: read-out: % AR (% kinase activity remaining)
TAO1 = TAO1 (Homo sapiens, UniProt Q7L7X3); assay: ICKP radiometric kinase assay; format: biochemical; conditions: read-out: % AR (% kinase activity remaining)
PKD1 = PKD1 (Homo sapiens, UniProt Q15139); assay: ICKP radiometric kinase assay; format: biochemical; conditions: read-out: % AR (% kinase activity remaining)
MST3 = MST3 (Homo sapiens, UniProt Q9Y6E0); assay: ICKP radiometric kinase assay; format: biochemical; conditions: read-out: % AR (% kinase activity remaining)
Sequence of MST3 (Q9Y6E0 whole entry): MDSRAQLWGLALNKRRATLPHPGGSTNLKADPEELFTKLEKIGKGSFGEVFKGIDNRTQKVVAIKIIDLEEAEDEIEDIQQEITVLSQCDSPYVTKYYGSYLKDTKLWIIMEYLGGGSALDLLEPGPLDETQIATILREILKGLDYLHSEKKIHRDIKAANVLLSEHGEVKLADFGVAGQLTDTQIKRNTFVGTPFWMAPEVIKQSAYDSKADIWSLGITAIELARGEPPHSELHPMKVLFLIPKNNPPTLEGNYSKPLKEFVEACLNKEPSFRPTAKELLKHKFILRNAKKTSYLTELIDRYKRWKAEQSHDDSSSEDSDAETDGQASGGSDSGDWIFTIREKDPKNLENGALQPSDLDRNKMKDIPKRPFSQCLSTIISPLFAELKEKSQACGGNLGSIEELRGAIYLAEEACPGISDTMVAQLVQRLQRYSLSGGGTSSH

[2] = MCF7, 72 h, read-out: 3-day antiproliferative IC50
[3] = MCF7, 168 h, read-out: 7-day antiproliferative IC50

Sequence of DDR2 (Q16832 22-855): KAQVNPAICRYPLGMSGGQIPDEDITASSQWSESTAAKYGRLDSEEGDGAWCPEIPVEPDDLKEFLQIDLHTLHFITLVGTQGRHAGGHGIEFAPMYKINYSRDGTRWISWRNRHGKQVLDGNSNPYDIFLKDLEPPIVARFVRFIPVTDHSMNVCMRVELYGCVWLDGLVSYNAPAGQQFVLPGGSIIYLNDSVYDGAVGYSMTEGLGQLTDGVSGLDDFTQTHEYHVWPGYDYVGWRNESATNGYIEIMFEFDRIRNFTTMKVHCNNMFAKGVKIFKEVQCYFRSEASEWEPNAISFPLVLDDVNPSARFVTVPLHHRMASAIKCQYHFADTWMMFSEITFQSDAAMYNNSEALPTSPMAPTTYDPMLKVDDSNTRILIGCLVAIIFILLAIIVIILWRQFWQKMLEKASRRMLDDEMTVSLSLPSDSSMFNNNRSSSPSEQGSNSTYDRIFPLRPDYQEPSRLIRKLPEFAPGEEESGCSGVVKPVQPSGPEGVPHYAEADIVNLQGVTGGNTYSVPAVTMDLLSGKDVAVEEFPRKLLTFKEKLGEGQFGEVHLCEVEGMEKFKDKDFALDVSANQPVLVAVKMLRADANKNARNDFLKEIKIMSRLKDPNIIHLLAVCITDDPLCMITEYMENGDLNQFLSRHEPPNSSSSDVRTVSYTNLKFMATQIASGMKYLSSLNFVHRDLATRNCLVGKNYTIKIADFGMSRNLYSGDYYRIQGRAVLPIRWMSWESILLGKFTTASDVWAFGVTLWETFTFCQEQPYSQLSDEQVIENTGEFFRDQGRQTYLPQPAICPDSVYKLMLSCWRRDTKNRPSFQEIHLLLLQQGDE

CN(C)C[C@H]1CC[C@H](N2C(=O)NCc3cnc4ccc(-c5cc(Cl)c(O)c(Cl)c5)cc4c32)CC1 [HTH-01-091, 9-(3,5-dichloro-4-hydroxyphenyl)-1-(trans-4-((dimethylamino)methyl)cyclohexyl)-3,4-dihydropyrimido[5,4 c]quinolin-2(1H)-one]
remaining activity at 1 µM (DDR2): 44% | remaining activity at 1 µM (CK2): 23% | remaining activity at 1 µM (TGFBR1): 102% | remaining activity at 1 µM (TIE2): 71% | IC50 [1]: 10700 nM | remaining activity at 1 µM (ULK1): 93% | remaining activity at 1 µM (PKA): 112% | remaining activity at 1 µM (IGF-1R): 92% | remaining activity at 1 µM (MAP4K5): 32% | remaining activity at 1 µM (PKC zeta): 96% | remaining activity at 1 µM (EF2K): 85% | remaining activity at 1 µM (ULK2): 105% | remaining activity at 1 µM (MARK2): 94% | remaining activity at 1 µM (IKK beta): 104% | remaining activity at 1 µM (PLK1): 95% | remaining activity at 1 µM (TSSK1): 68% | remaining activity at 1 µM (MARK4): 95% | remaining activity at 1 µM (JNK1): 97% | remaining activity at 1 µM (CDK9-Cyclin T1): 92% | remaining activity at 1 µM (SIK2): 79% | remaining activity at 1 µM (p38 alpha): 84% | IC50 (MCF7; [2]): 8750 nM | IC50 (MCF7; [3]): 4130 nM | remaining activity at 1 µM (TESK1): 95% | remaining activity at 1 µM (RSK2): 62% | remaining activity at 1 µM (S6K1): 81% | % AR (% kinase activity remaining) (PHK): 74% | remaining activity at 1 µM (TTK): 53% | remaining activity at 1 µM (ROCK 2): 82% | remaining activity at 1 µM (TrkA): 53% | remaining activity at 1 µM (SRPK1): 94% | remaining activity at 1 µM (EPH-A4): 63% | remaining activity at 1 µM (IRR): 79% | remaining activity at 1 µM (TAO1): 18% | remaining activity at 1 µM (PKD1): 79% | remaining activity at 1 µM (MST3): 93%

CC(=O)c1cnc2ccc(-c3cc(Cl)c(O)c(Cl)c3)nc2c1N[C@H]1CC[C@H](CN(C)C)CC1 [OTSSP167]
remaining activity at 1 µM (DDR2): 0% | remaining activity at 1 µM (CK2): 1% | remaining activity at 1 µM (TGFBR1): 16% | remaining activity at 1 µM (TIE2): 3% | IC50 [1]: 33 nM | remaining activity at 1 µM (ULK1): 32% | remaining activity at 1 µM (PKA): 12% | remaining activity at 1 µM (IGF-1R): 4% | remaining activity at 1 µM (MAP4K5): 3% | remaining activity at 1 µM (PKC zeta): 19% | remaining activity at 1 µM (EF2K): 114% | remaining activity at 1 µM (ULK2): 4% | remaining activity at 1 µM (MARK2): 23% | remaining activity at 1 µM (IKK beta): 41% | remaining activity at 1 µM (PLK1): 3% | remaining activity at 1 µM (TSSK1): 1% | remaining activity at 1 µM (MARK4): 14% | remaining activity at 1 µM (JNK1): 10% | remaining activity at 1 µM (CDK9-Cyclin T1): 4% | remaining activity at 1 µM (SIK2): 2% | remaining activity at 1 µM (p38 alpha): 10% | IC50 (MCF7; [2]): 35 nM | IC50 (MCF7; [3]): 27 nM | remaining activity at 1 µM (TESK1): 51% | remaining activity at 1 µM (RSK2): 1% | remaining activity at 1 µM (S6K1): 2% | % AR (% kinase activity remaining) (PHK): 3% | remaining activity at 1 µM (TTK): 3% | remaining activity at 1 µM (ROCK 2): 49% | remaining activity at 1 µM (TrkA): 1% | remaining activity at 1 µM (SRPK1): 10% | remaining activity at 1 µM (EPH-A4): 1% | remaining activity at 1 µM (IRR): 6% | remaining activity at 1 µM (TAO1): 3% | remaining activity at 1 µM (PKD1): 6% | remaining activity at 1 µM (MST3): 5%

From PMC5605198, “MELK is not necessary for the proliferation of basal-like breast cancer cells” (eLife, 2017)
